Source: paper PMC5218480 (PLoS ONE, 2017)

Test system: MV-4-11 cells
Assay: Gene expression microarray analysis (Affymetrix PrimeView) and GSEA
Format: cell-based, human
Design: RFU PODN (11730768_x_at) / Fold change /veh PODN (11730768_x_at) / RFU LINC00158 (11744669_a_at) / Fold change /veh LINC00158 (11744669_a_at) / RFU DUSP10 (11751237_a_at) / Fold change /veh DUSP10 (11751237_a_at) / RFU ID3 (11757404_x_at) / Fold change /veh ID3 (11757404_x_at) / RFU PLEKHG5 (11737974_s_at) / Fold change /veh PLEKHG5 (11737974_s_at) / RFU LRRC4B (11730491_at) / Fold change /veh LRRC4B (11730491_at) / RFU GIMAP4 (11747438_a_at) / Fold change /veh GIMAP4 (11747438_a_at) / RFU KRT8 (11758183_x_at) / Fold change /veh KRT8 (11758183_x_at) / RFU CNN1 (11734310_a_at) / Fold change /veh CNN1 (11734310_a_at) / RFU VPS37D (11726825_at) / Fold change /veh VPS37D (11726825_at) / RFU C10orf10 (11716522_x_at) / Fold change /veh C10orf10 (11716522_x_at) / RFU KIR2DL2 /// KIR2DL4 /// KIR2DL5A /// KIR2DL5B /// KIR2DS1 /// KIR2DS2 /// KIR2DS3 /// KIR2DS4 /// KIR3DL3 /// KIR3DL3 /// KIR3DS1 (11738374_at) / Fold change /veh KIR2DL2 /// KIR2DL4 /// KIR2DL5A /// KIR2DL5B /// KIR2DS1 /// KIR2DS2 /// KIR2DS3 /// KIR2DS4 /// KIR3DL3 /// KIR3DL3 /// KIR3DS1 (11738374_at) / RFU C1QL1 (11718748_at) / Fold change /veh C1QL1 (11718748_at) / RFU TMPRSS4 (11747572_a_at) / Fold change /veh TMPRSS4 (11747572_a_at) / RFU HAMP (11756126_x_at) / Fold change /veh HAMP (11756126_x_at) / RFU RNFT2 (11725882_a_at) / Fold change /veh RNFT2 (11725882_a_at) / RFU NR4A2 (11747474_a_at) / Fold change /veh NR4A2 (11747474_a_at) / RFU ABCC12 (11746883_a_at) / Fold change /veh ABCC12 (11746883_a_at) / RFU TMEM136 (11760407_x_at) / Fold change /veh TMEM136 (11760407_x_at) / RFU CLDN22 /// WWC2 (11732394_at) / Fold change /veh CLDN22 /// WWC2 (11732394_at) / RFU HLA-DPB1 (11760878_x_at) / Fold change /veh HLA-DPB1 (11760878_x_at) / RFU SPINT1 (11716480_a_at) / Fold change /veh SPINT1 (11716480_a_at) / RFU GAP43 (11754022_s_at) / Fold change /veh GAP43 (11754022_s_at) / RFU A4GNT (11735810_at) / Fold change /veh A4GNT (11735810_at) / RFU PRB3 (11715151_x_at) / Fold change /veh PRB3 (11715151_x_at) / RFU TUBB4B (11761932_at) / Fold change /veh TUBB4B (11761932_at) / RFU CAPN14 (11732068_a_at) / Fold change /veh CAPN14 (11732068_a_at) / RFU TMCC2 (11721928_a_at) / Fold change /veh TMCC2 (11721928_a_at) / RFU IRGQ (11745062_a_at) / Fold change /veh IRGQ (11745062_a_at) / RFU FAM174B (11720279_a_at) / Fold change /veh FAM174B (11720279_a_at) / RFU TMPRSS4 (11748680_a_at) / Fold change /veh TMPRSS4 (11748680_a_at) / RFU FAM212B (11763350_a_at) / Fold change /veh FAM212B (11763350_a_at) / RFU PLEKHG5 (11743358_a_at) / Fold change /veh PLEKHG5 (11743358_a_at) / RFU ZSCAN30 (11745921_a_at) / Fold change /veh ZSCAN30 (11745921_a_at) / RFU CMKLR1 (11741424_a_at) / Fold change /veh CMKLR1 (11741424_a_at) / RFU LOC101060620 /// MAPK8IP1 (11723275_at) / Fold change /veh LOC101060620 /// MAPK8IP1 (11723275_at) / RFU SPTSSB (11747773_x_at) / Fold change /veh SPTSSB (11747773_x_at) / RFU PRSS12 (11739890_at) / Fold change /veh PRSS12 (11739890_at) / RFU BIN1 (11741810_x_at) / Fold change /veh BIN1 (11741810_x_at) / RFU WNT11 (11732464_a_at) / Fold change /veh WNT11 (11732464_a_at) / RFU C10orf10 (11716521_a_at) / Fold change /veh C10orf10 (11716521_a_at) / RFU C5orf56 (11738089_at) / Fold change /veh C5orf56 (11738089_at) / RFU CYB561 (11721691_x_at) / Fold change /veh CYB561 (11721691_x_at) / RFU ANKRD19P (11752326_a_at) / Fold change /veh ANKRD19P (11752326_a_at) / RFU OR2T12 /// OR2T33 /// OR2T8 (11738714_s_at) / Fold change /veh OR2T12 /// OR2T33 /// OR2T8 (11738714_s_at) / RFU VCAN (11748164_a_at) / Fold change /veh VCAN (11748164_a_at) / RFU JSRP1 (11732532_at) / Fold change /veh JSRP1 (11732532_at) / RFU KRTAP10-11 (11738290_x_at) / Fold change /veh KRTAP10-11 (11738290_x_at) / RFU MYO3A (11730013_a_at) / Fold change /veh MYO3A (11730013_a_at) / RFU EBF3 (11725865_a_at) / Fold change /veh EBF3 (11725865_a_at) / RFU CAMK2N1 (11719241_x_at) / Fold change /veh CAMK2N1 (11719241_x_at) / RFU C5orf56 (11738088_a_at) / Fold change /veh C5orf56 (11738088_a_at) / RFU OLFML3 (11715873_a_at) / Fold change /veh OLFML3 (11715873_a_at) / RFU LOC100653217 /// NTM (11731650_a_at) / Fold change /veh LOC100653217 /// NTM (11731650_a_at) / RFU MAPK11 (11762145_a_at) / Fold change /veh MAPK11 (11762145_a_at) / RFU FIZ1 (11724087_x_at) / Fold change /veh FIZ1 (11724087_x_at) / RFU OASL (11726364_x_at) / Fold change /veh OASL (11726364_x_at) / RFU SOX15 (11748057_x_at) / Fold change /veh SOX15 (11748057_x_at) / RFU CD79A (11719716_a_at) / Fold change /veh CD79A (11719716_a_at) / RFU HIST1H1D (11736915_at) / Fold change /veh HIST1H1D (11736915_at) / RFU CASKIN2 (11723855_a_at) / Fold change /veh CASKIN2 (11723855_a_at) / RFU LOC730098 (11760151_x_at) / Fold change /veh LOC730098 (11760151_x_at) / RFU OR4N2 (11742367_at) / Fold change /veh OR4N2 (11742367_at) / RFU PRRT2 (11749266_a_at) / Fold change /veh PRRT2 (11749266_a_at) / RFU SNX32 (11753110_a_at) / Fold change /veh SNX32 (11753110_a_at) / RFU CDHR5 (11726645_a_at) / Fold change /veh CDHR5 (11726645_a_at) / RFU RCAN1 (11760418_a_at) / Fold change /veh RCAN1 (11760418_a_at) / RFU FAM167A (11723789_a_at) / Fold change /veh FAM167A (11723789_a_at) / RFU FAM26E (11764081_at) / Fold change /veh FAM26E (11764081_at) / RFU ISYNA1 (11749810_s_at) / Fold change /veh ISYNA1 (11749810_s_at) / RFU ACY1 (11761880_at) / Fold change /veh ACY1 (11761880_at) / RFU 11764098_at / Fold change /veh 11764098_at / RFU SAMD14 (11745864_x_at) / Fold change /veh SAMD14 (11745864_x_at) / RFU NPB (11741838_a_at) / Fold change /veh NPB (11741838_a_at) / RFU TMPRSS6 (11731388_a_at) / Fold change /veh TMPRSS6 (11731388_a_at) / RFU KRTAP10-2 (11738614_at) / Fold change /veh KRTAP10-2 (11738614_at) / RFU ARHGAP8 /// PRR5-ARHGAP8 (11727945_x_at) / Fold change /veh ARHGAP8 /// PRR5-ARHGAP8 (11727945_x_at) / RFU KRTAP5-7 /// NADSYN1 (11734609_at) / Fold change /veh KRTAP5-7 /// NADSYN1 (11734609_at) / RFU RASL12 (11751679_a_at) / Fold change /veh RASL12 (11751679_a_at) / RFU CDKN2B (11736163_a_at) / Fold change /veh CDKN2B (11736163_a_at) / RFU PRF1 (11729649_at) / Fold change /veh PRF1 (11729649_at) / RFU, ZNF638 /// ZNF638-IT1 / Fold change vs veh, ZNF638 /// ZNF638-IT1 / RFU, PANK3 / Fold change vs veh, PANK3 / RFU, SH3YL1 / Fold change vs veh, SH3YL1 / RFU, ZEB2 / Fold change vs veh, ZEB2 / RFU, NRIP1 / Fold change vs veh, NRIP1 / RFU, PTTG1IP / Fold change vs veh, PTTG1IP / RFU, CAPN2 / Fold change vs veh, CAPN2 / RFU, MED14 / Fold change vs veh, MED14 / RFU, SNORA58 / Fold change vs veh, SNORA58 / RFU, C1orf63 / Fold change vs veh, C1orf63 / RFU, LRRFIP1 / Fold change vs veh, LRRFIP1 / RFU, NDUFAF7 / Fold change vs veh, NDUFAF7 / RFU, SLC12A2 / Fold change vs veh, SLC12A2 / RFU, IBTK / Fold change vs veh, IBTK / RFU, ESF1 / Fold change vs veh, ESF1 / Fold change vs veh, TMEM50B / RFU, TAOK1 / Fold change vs veh, TAOK1 / RFU, ACBD3 / Fold change vs veh, ACBD3 / RFU, TMA16 / Fold change vs veh, TMA16 / RFU, RWDD3 / Fold change vs veh, RWDD3 / RFU, BCAT1 / Fold change vs veh, BCAT1 / RFU, EDEM3 / Fold change vs veh, EDEM3 / RFU, TMEM33 / Fold change vs veh, TMEM33 / RFU, WDR75 / Fold change vs veh, WDR75 / RFU, AHCTF1 / Fold change vs veh, AHCTF1 / RFU, TFRC / Fold change vs veh, TFRC / RFU, ZDHHC17 / Fold change vs veh, ZDHHC17 / RFU, NOM1 / Fold change vs veh, NOM1 / RFU, ARL8B / Fold change vs veh, ARL8B / RFU, ZBTB11 / Fold change vs veh, ZBTB11 / RFU, TAMM41 / Fold change vs veh, TAMM41 / RFU, KIAA1704 /// LOC100996395 / Fold change vs veh, KIAA1704 /// LOC100996395 / RFU, ING1 / Fold change vs veh, ING1 / RFU, TRMT61B / Fold change vs veh, TRMT61B / RFU, FUBP3 / Fold change vs veh, FUBP3 / RFU, TP53 / Fold change vs veh, TP53 / RFU, TNKS2 / Fold change vs veh, TNKS2 / RFU, ZFP14 / Fold change vs veh, ZFP14 / RFU, ACTR2 / Fold change vs veh, ACTR2 / RFU, PPP3R1 / Fold change vs veh, PPP3R1 / RFU, PIK3R1 / Fold change vs veh, PIK3R1 / RFU, HNRNPA1 / Fold change vs veh, HNRNPA1 / RFU, RNF170 / Fold change vs veh, RNF170 / RFU, ZNF28 / Fold change vs veh, ZNF28 / RFU, RNGTT / Fold change vs veh, RNGTT / RFU, OGT / Fold change vs veh, OGT / RFU, BRD1 / Fold change vs veh, BRD1 / RFU, MARS / Fold change vs veh, MARS / RFU, ZNF655 / Fold change vs veh, ZNF655 / RFU, FAHD1 / Fold change vs veh, FAHD1 / RFU, BDP1 / Fold change vs veh, BDP1 / RFU, LRRCC1 / Fold change vs veh, LRRCC1 / RFU, ARID1A / Fold change vs veh, ARID1A / RFU, ZNF146 / Fold change vs veh, ZNF146 / RFU, ZNF330 / Fold change vs veh, ZNF330 / RFU, GPN3 / Fold change vs veh, GPN3 / RFU, C9orf123 / Fold change vs veh, C9orf123 / RFU, N4BP2L2 / Fold change vs veh, N4BP2L2 / RFU, ARFIP1 / Fold change vs veh, ARFIP1 / RFU, FAM179B / Fold change vs veh, FAM179B / RFU, BCL10 / Fold change vs veh, BCL10 / RFU, UHRF1BP1L / Fold change vs veh, UHRF1BP1L / RFU, BET1 / Fold change vs veh, BET1 / RFU, CNOT2 / Fold change vs veh, CNOT2 / RFU, ZNF268 / Fold change vs veh, ZNF268 / Fold change vs veh, ZNF507 / RFU, DGCR2 / Fold change vs veh, DGCR2 / RFU, WDSUB1 / Fold change vs veh, WDSUB1 / Fold change vs veh, HSP90B1 /// MIR3652 / RFU, ADSS / Fold change vs veh, ADSS / RFU, GK / Fold change vs veh, GK / RFU, ZNF148 / Fold change vs veh, ZNF148 / RFU, TAF9 / Fold change vs veh, TAF9 / RFU, SLC1A5 / Fold change vs veh, SLC1A5 / RFU, SLMO2 / Fold change vs veh, SLMO2 / RFU, ABCC4 / Fold change vs veh, ABCC4 / RFU, LOC101060439 /// RAP1B / Fold change vs veh, LOC101060439 /// RAP1B / RFU, RFX7 / Fold change vs veh, RFX7 / RFU, GTPBP10 / Fold change vs veh, GTPBP10 / RFU, CNEP1R1 / Fold change vs veh, CNEP1R1 / RFU, BIVM-ERCC5 /// ERCC5 / Fold change vs veh, BIVM-ERCC5 /// ERCC5 / RFU, ILF3 / Fold change vs veh, ILF3 / RFU 11762660_at / Fold change /veh 11762660_at / RFU VCAN (11757783_s_at) / Fold change /veh VCAN (11757783_s_at) / RFU DDX43 (11728927_at) / Fold change /veh DDX43 (11728927_at) / RFU KRT8 (11758188_x_at) / Fold change /veh KRT8 (11758188_x_at) / RFU NKD1 (11759106_at) / Fold change /veh NKD1 (11759106_at) / RFU SRD5A1 (11742802_a_at) / Fold change /veh SRD5A1 (11742802_a_at) / RFU TPSAB1 /// TPSB2 (11721975_s_at) / Fold change /veh TPSAB1 /// TPSB2 (11721975_s_at) / RFU GSTM3 (11746129_a_at) / Fold change /veh GSTM3 (11746129_a_at) / RFU IL23R (11737362_x_at) / Fold change /veh IL23R (11737362_x_at) / RFU TMEM51 (11727254_a_at) / Fold change /veh TMEM51 (11727254_a_at) / RFU PIWIL2 (11732686_x_at) / Fold change /veh PIWIL2 (11732686_x_at) / RFU ORM1 (11744905_x_at) / Fold change /veh ORM1 (11744905_x_at) / RFU CCDC152 (11743942_at) / Fold change /veh CCDC152 (11743942_at) / RFU ECM1 (11717891_a_at) / Fold change /veh ECM1 (11717891_a_at) / RFU IL23R (11748794_a_at) / Fold change /veh IL23R (11748794_a_at) / RFU TNFAIP8L3 (11732012_x_at) / Fold change /veh TNFAIP8L3 (11732012_x_at) / RFU MBOAT4 (11741988_at) / Fold change /veh MBOAT4 (11741988_at) / RFU 11764193_at / Fold change /veh 11764193_at / RFU TMEM53 (11763286_at) / Fold change /veh TMEM53 (11763286_at) / RFU MAGEB2 (11727129_at) / Fold change /veh MAGEB2 (11727129_at) / RFU TMEM200A (11744735_a_at) / Fold change /veh TMEM200A (11744735_a_at) / RFU CCDC152 (11751479_a_at) / Fold change /veh CCDC152 (11751479_a_at) / RFU FAM211A (11726209_a_at) / Fold change /veh FAM211A (11726209_a_at) / RFU RGS16 (11746705_a_at) / Fold change /veh RGS16 (11746705_a_at) / RFU VCAN (11755009_s_at) / Fold change /veh VCAN (11755009_s_at) / RFU RHOB (11743442_s_at) / Fold change /veh RHOB (11743442_s_at) / RFU RGS16 (11720943_a_at) / Fold change /veh RGS16 (11720943_a_at) / RFU RGS16 (11720944_at) / Fold change /veh RGS16 (11720944_at) / RFU, VPS4B / Fold change vs veh, VPS4B / RFU, CREB1 / Fold change vs veh, CREB1 / RFU, DNAJC13 / Fold change vs veh, DNAJC13 / RFU, GNAQ / Fold change vs veh, GNAQ / RFU, CDK5R1 / Fold change vs veh, CDK5R1 / RFU, ZRANB3 / Fold change vs veh, ZRANB3 / RFU, CUL4A / Fold change vs veh, CUL4A / RFU, CCNY / Fold change vs veh, CCNY / RFU, UFL1 / Fold change vs veh, UFL1 / RFU, COG3 / Fold change vs veh, COG3 / RFU, DIAPH2 / Fold change vs veh, DIAPH2 / RFU, SKA2 / Fold change vs veh, SKA2 / RFU, AFF3 / Fold change vs veh, AFF3 / RFU, LMF1 / Fold change vs veh, LMF1 / RFU, IPO11 / Fold change vs veh, IPO11 / RFU, DFFB / Fold change vs veh, DFFB / RFU, FOXP1 / Fold change vs veh, FOXP1 / RFU, CARD8 / Fold change vs veh, CARD8 / RFU, STRN3 / Fold change vs veh, STRN3 / RFU, ADK / Fold change vs veh, ADK / RFU, RASSF2 / Fold change vs veh, RASSF2 / RFU, WIPF1 / Fold change vs veh, WIPF1 / RFU, LARP1B / Fold change vs veh, LARP1B / RFU, RASA1 / Fold change vs veh, RASA1 / RFU, RB1 / Fold change vs veh, RB1 / RFU, PPFIA1 / Fold change vs veh, PPFIA1 / RFU, MAT2A / Fold change vs veh, MAT2A / RFU, CCT5 / Fold change vs veh, CCT5 / RFU, WDR92 / Fold change vs veh, WDR92 / RFU, CUX1 / Fold change vs veh, CUX1 / RFU, TTC7A / Fold change vs veh, TTC7A / RFU, TMEM135 / Fold change vs veh, TMEM135 / RFU, DEPTOR / Fold change vs veh, DEPTOR / RFU, CPM / Fold change vs veh, CPM / RFU, DNAJB6 / Fold change vs veh, DNAJB6 / RFU, CACNA2D3 / Fold change vs veh, CACNA2D3 / RFU, DTX4 / Fold change vs veh, DTX4 / RFU, TFCP2 / Fold change vs veh, TFCP2 / RFU, GMCL1 /// GMCL1P1 / Fold change vs veh, GMCL1 /// GMCL1P1 / RFU, AEBP2 / Fold change vs veh, AEBP2 / RFU, SNHG1 /// SNORD22 /// SNORD25 /// SNORD26 /// SNORD27 /// SNORD28 /// SNORD29 /// SNORD31 / Fold change vs veh, SNHG1 /// SNORD22 /// SNORD25 /// SNORD26 /// SNORD27 /// SNORD28 /// SNORD29 /// SNORD31 / Fold change (Aza/veh), C12orf56 (ProbeSet 11735607_a_at) / Fold change (ACY-1035/veh), C12orf56 (ProbeSet 11735607_a_at) / Fold change (Aza/veh), FGFR1OP (ProbeSet 11751329_s_at) / Fold change (ACY-1035/veh), FGFR1OP (ProbeSet 11751329_s_at) / Fold change (Aza/veh), VPS36 (ProbeSet 11739960_a_at) / Fold change (ACY-1035/veh), VPS36 (ProbeSet 11739960_a_at) / RFU SYPL1 (11715823_x_at) / Fold change /veh SYPL1 (11715823_x_at) / RFU IGFBP7 (11715501_s_at) / Fold change /veh IGFBP7 (11715501_s_at) / RFU REEP3 (11722064_at) / Fold change /veh REEP3 (11722064_at) / RFU IGLL1 (11728026_x_at) / Fold change /veh IGLL1 (11728026_x_at): dose or concentration left out as unconfirmed
Details: ProbeSet 11734937_a_at; LIST B

SMILES: Nc1ncn([C@@H]2O[C@H](CO)[C@@H](O)[C@H]2O)c(=O)n1 [azacitidine]
- RFU, CNOT2: 887.01 RFU
